Counter-ions that a name gives are not always drawn.

The target of one assay is T1, Rat brain protein farnesyltransferase (Rattus norvegicus, UniProt Q02293+Q04631).
T1 construct: The enzyme is purified according to Reiss, Y., et al., Cell, 62: 81-88 (1990), utilizing steps one through three; from tissue; host or cells: rat brain
In words: In vitro inhibition of protein farnesyltransferase, Amersham scintillation proximity assay with biotin-K Ras B fragment. The class given is biochemical. Conditions: Inhibition of farnesyltransferase; compound at 1 × 10^−6 M (Table 2). The text has this:
The ability of the compounds of the invention to inhibit protein farnesyltransferase or protein geranylgeranyltransferase can be measured according to the method of Moores, et al., J. Biol. Chem. 266: 14603 (1991) or the method of Vogt, et al., J. Biol. Chem. 270:660-664 (1995). In addition, procedures for determination of the inhibition of farnesylation of the oncogene protein Ras are described by Goldstein, et al., J. Biol. Chem., 266:15575-15578 (1991) and by Singh in U.S. Pat. No. 5,245,061.
In addition, in vitro inhibition of protein farnesyltransferase may be measured by the following procedure. Rat brain protein farnesyltransferase activity is measured using an Amersham Life Science commercial scintillation proximity assay kit and substituting a biotin-K Ras B fragment (biotin-[…]Ue-Met-CO2H), 0.1 mM final concentration, for the biotin-lamin substrate provided by Amersham. The enzyme is purified according to Reiss, Y., et al., Cell, 62: 81-88 (1990), utilizing steps one through three. […]
The % inhibition of protein farnesyltransferase was determined for representative compounds of the invention.
The term % inhibition denotes the relative decrease from the control value, in per cent. Turning to “[4-(3-Pyridyloxymethyl)-2-(2-ethylphenyl)benzoyl]methionine Methyl Ester [Example 306]”, the “% inhibition at 1 × 10^−6 M” value stood at 99%.
For the molecule “N-[4-(3-Imidazol-1-ylprolpylaminosulfonyl)-2-phenylbenzoyl]methionine Lithium Salt [Example 777]”, the “% inhibition at 1 × 10^−6 M” value came to 83%.

Staying with this assay, now noted: Inhibition of farnesyltransferase; compound at 1 × 10^−6 M (Table 2); read-out: % inhibition at 1 × 10^−6 M.
Broadly, the inhibition is the change of the read-out against control, counted positive when it falls. Regarding `C[C@H](NC(=O)c1ccc(COc2cccnc2)cc1-c1ccccc1)C(=O)O` [Example 187, [4-(3-Pyridyloxymethyl)-2-phenylbenzoyl]alanine], the inhibition at 1 µM was determined as 68%.
Consider `CSCC[C@H](NC(=O)c1ccc(CNc2cccnc2)cc1-c1ccccc1)C(=O)O` [Example 227, [4-(Pyrid-3-ylaminomethyl)-2-phenylbenzoyl]methionine], for which the inhibition at 1 µM came out at 94%.
Regarding `COC(=O)[C@H](CCSC)NC(=O)c1ccc(/C=C/c2cccnc2)cc1-c1ccccc1` [Example 210, {4-[2-(Pyrid-3-yl)ethenyl]-2-phenylbenzoyl}methionine Methyl Ester], the inhibition at 1 µM was 5%.
Regarding `CSCC[C@H](NC(=O)c1ccc(COc2cccnc2)cc1-c1ccccc1)C(=O)NO` [Example 249, [4-(3-Pyridyloxymethyl)-2-phenylbenzoyl]methionine Hydroxamic Acid], the inhibition at 1 µM was 77%.
Same read-out and setting: with `CS(=O)(=O)CC[C@H](NC(=O)c1ccc(C(O)C(O)c2cccnc2)cc1-c1ccccc1)C(=O)O` (mixture of isomers) [Example 221, N-{4-[2-(Pyrid-3-yl)-1,2-dihydroxyethyl]-2-phenylbenzoyl]-2-amino-4-(methylsulfonyl)butanoic Acid] the figure was 55%; with `CSCC[C@H](NC(=O)c1ccc(OCc2cccnc2)cc1-c1ccccc1)C(=O)O` [Example 240, [4-(3-Pyridylmethyloxy)-2-phenylbenzoyl-]methionine], 98%.
With `COC(=O)[C@H](CCSC)NC(=O)c1ccc(COc2cccnc2)cc1-c1ccccc1C` [Example 307, [4-(3-Pyridyloxymethyl)-2-(2-methylphenyl)benzoyl]methionine Methyl Ester], the inhibition at 1 µM was found to be 82%.
Turning to `Cc1ccccc1-c1cc(/C=C/c2cnc3ccccc3c2)ccc1C(=O)N[C@@H](CC[S+](C)[O-])C(=O)O` (some centres unmarked) [Example 488], the inhibition at 1 µM turned out to be 41%.
Regarding `CSCC[C@H](NC(=O)c1ccc(CN(Cc2ccccc2)c2cccnc2)cc1-c1ccccc1C)C(=O)O` [Example 407, [4-(N-Benzyl-N-3-pyridylaminomethyl)-2-(2-methylphenyl)benzoyl]methionine], the inhibition at 1 µM was found to be 98%.
The same measure, in the same setting: with `CSCC[C@H](NC(=O)c1ccc(Sc2cccnc2)cc1-c1ccccc1)C(=O)O` [Example 241] the figure was 41%; with `CSCC[C@H](NC(=O)c1ccc(COc2cccnc2)cc1-c1ccccc1C)C(=O)NS(=O)(=O)c1ccccc1` [Example 253, [4-(3-Pyridyloxymethyl)-2-(2-methylphenyl)benzoyl]methionine Phenylsulfonimide], 99%.

Staying with this assay, now noted: Inhibition of farnesyltransferase; compound at 1 × 10^−7 M (Table 3); read-out: % inhibition at 1 × 10^−7 M.
Consider `CSCC[C@H](NC(=O)c1cc(CC2CCCCC2)c(COc2cccnc2)cc1-c1ccccc1C)C(=O)O` [Example 921, N-[5-Cyclohexylmethyl-4-(pyrid-3-yloxymethyl)-2-(2-methylphenyl)benzoyl]methionine], for which the inhibition at 0.1 µM was 82%.
On the same count and under the same terms, with `CSCC[C@H](NC(=O)c1ccc(CN(c2cccnc2)S(=O)(=O)c2ccccc2)cc1-c1ccccc1C)C(=O)O` [Example 570, N-[4-N-Phenylsulfonyl-N-pyrid-3-ylaminomethyl-2-(2-methylphenyl)benzoyl]methionine] the figure was 92%.
Still for that read-out and setting: to `CSCC[C@H](NC(=O)c1ccc(/C=C/c2cnccc2C(=O)c2ccccc2)cc1-c1ccccc1C)C(=O)O` [Example 483, N-[4-(2-(4-Benzoyl)pyrid-3-ylethen-1-yl)-2-(2-methylphenyl)benzoyl]methionine Lithium Salt] belongs 95%.

Still in this assay, the particulars now being: Inhibition of farnesyltransferase; compound at 1 × 10^−8 M (Table 4); read-out: % inhibition at 1 × 10^−8 M.
Regarding `CC[C@H](NC(=O)c1ccc(COc2cccnc2)cc1-c1ccccc1)C(=O)O` [Example 760, (2S)-2-N-[4-(3-Pyridyloxymethyl)-2-phenylbenzoyl]aminobutanoic Acid], the inhibition at 0.01 µM worked out at 95%.

Still in this assay, the particulars now being: read-out: % inhibition at 0.01 μM.
For `CSCC[C@H](NC(=O)c1ccc(C=Cc2cnccc2O)cc1-c1ccccc1C)C(=O)O` [Example 1039, N-[4-(2-(4-Hydroxypyridin-3-yl)ethenyl)-2-(2-methylphenyl)benzoyl]methionine Lithium Salt], the inhibition at 0.01 µM is 89%.
`CSCC[C@H](NC(=O)c1ccc(CN(CCCn2ccnc2)Cc2cc(F)cc(F)c2)cc1-c1ccccc1C)C(=O)O` [Example 1298, N-[4-N-(N-(3-(1-Imidazole)-propyl)-N-(3,5-difluorobenzyl)aminomethyl)-2-(2-methylphenyl)benzoyl]methionine Lithium Salt]: the inhibition at 0.01 µM came out at 97%.

The assay is the same for the next values; noted with them: read-out: % inhibition at 1 × 10^−6 M.
As to `CSCC[C@H](NC(=O)c1ccc(COc2cccnc2)cc1-c1ccccc1)c1nnc(C(F)(F)F)[nH]1` [Example 272, N-[3-(Methylthio)-1-(2-trifluoromethyl-1H-1,3,4-triazol-5-yl)propyl]-4-(3-pyridyloxymethyl)-2-phenylbenzamide], the inhibition at 1 µM is 96%.
`O=C(N[C@@H](CCO)C(=O)O)c1ccc(NCc2cccnc2)cc1-c1ccccc1` [Example 191, Lithium 4-(3-Pyridylmethylamino)-2-phenylbenzoyl-L-homoserinate]: the inhibition at 1 µM came to 28%.
Turning to `CSCC[C@H](NC(=O)c1ccc(C(=O)N(Cc2ccccc2)c2cccnc2)cc1-c1ccccc1C)C(=O)O` [Example 451, N-[4-(N-3-Pyridyl-N-benzyl)carbonyl-2-(2-methylphenyl)benzoyl]methionine], the inhibition at 1 µM was determined as 85%.
Turning to `CSCC[C@H](NC(=O)c1ccc(COc2cccnc2)cc1-c1ccccc1C(F)(F)F)C(=O)O` [Example 304, [4-(3-Pyridyloxymethyl)-2-(2-trifluoromethylphenyl)benzoyl]methionine], the inhibition at 1 µM turned out to be 99%.
For the molecule `CSCC[C@H](NC(=O)c1ccc(/C=C/c2cncc(Br)c2)cc1-c1ccccc1)C(=O)O` [Example 215, {4-[2-(5-Bromopyrid-3-yl)ethenyl]-2-phenylbenzoyl}methionine Sodium Salt], the inhibition at 1 µM is 82%.
Turning to `CSCC[C@H](NC(=O)Nc1ccc(COc2cccnc2)cc1-c1ccccc1)C(=O)O` [Example 348, [4-(3-Pyridyloxymethyl)-2-(phenyl)phenylaminocarbonyl]methionine], the inhibition at 1 µM came to 66%.
`CSCC[C@H](NC(=O)c1ccc(NC(=O)c2cnccc2C(F)(F)F)cc1-c1ccccc1)C(=O)O` [Example 282, [4-(4-Trifluoromethylpyrid-3-ylcarbonylamino)-2-phenylbenzoyl]methionine Sodium Salt]: the inhibition at 1 µM worked out at 76%.
Turning to `CSCC[C@H](NC(=O)c1ccc(/C=C/n2ccnc2)cc1-c1ccccc1)C(=O)O` [Example 217, {4-[2-(1-H-Imidazole-1-yl)ethenyl]-2-phenylbenzoyl}methionine Sodium Salt], the inhibition at 1 µM was found to be 99%.

The assay is the same for the next values; noted with them: read-out: % inhibition at 1 × 10^−7 M.
In the case of `CSCC[C@H](NC(=O)c1ccc(COc2cccnc2)cc1-c1c(C)noc1C)C(=O)O` [Example 823], the inhibition at 0.1 µM worked out at 75%.
In the case of `CSCC[C@H](NC(=O)c1ccc(CCc2cncc(Cc3ccccc3)c2)cc1-c1ccccc1C)C(=O)O` [Example 799, Lithium Salt], the inhibition at 0.1 µM worked out at 96%.
